Measurements published in PubChem BioAssay (NCI).
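Briefly, cells in 96-well plates were exposed to five compound concentrations for 48 h, and endpoints were estimated by linear interpolation. Abbreviation: GI50, concentration required for 50% inhibition of growth. Definition used: TGI = concentration required for complete inhibition of growth.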

What was measured:
Experiment in all cases: inhibition of tumour cell growth, NCI panel, 48 h
LOX IMVI melanoma = system: LOX IMVI melanoma
A498 renal = system: A498 renal
HOP-62 NSCLC = system: HOP-62 NSCLC
786-0 renal = system: 786-0 renal
HT29 colon = system: HT29 colon
CCRF-CEM leukemia = system: CCRF-CEM leukemia
RXF 393 renal = system: RXF 393 renal
SN12C renal = system: SN12C renal
PC-3 prostate = system: PC-3 prostate
EKVX NSCLC = system: EKVX NSCLC
OVCAR-4 ovarian = system: OVCAR-4 ovarian
RPMI-8226 leukemia = system: RPMI-8226 leukemia
DU-145 prostate = system: DU-145 prostate
UO-31 renal = system: UO-31 renal
OVCAR-3 ovarian = system: OVCAR-3 ovarian
MDA-MB-435 = system: MDA-MB-435
SF-268 CNS = system: SF-268 CNS
COLO 205 colon = system: COLO 205 colon
SF-295 CNS = system: SF-295 CNS
SK-OV-3 ovarian = system: SK-OV-3 ovarian
BT-549 breast = system: BT-549 breast
UACC-257 melanoma = system: UACC-257 melanoma
NCI-H460 lung = system: NCI-H460 lung
HOP-92 NSCLC = system: HOP-92 NSCLC
TK-10 renal = system: TK-10 renal
SK-MEL-5 melanoma = system: SK-MEL-5 melanoma
SW-620 colon = system: SW-620 colon
MDA-MB-231 breast = system: MDA-MB-231 breast
OVCAR-5 ovarian = system: OVCAR-5 ovarian
ACHN renal = system: ACHN renal
NCI-H226 lung = system: NCI-H226 lung
MALME-3M melanoma = system: MALME-3M melanoma
SK-MEL-2 melanoma = system: SK-MEL-2 melanoma
A549 NSCLC = system: A549 NSCLC
SK-MEL-28 melanoma = system: SK-MEL-28 melanoma
IGROV1 ovarian = system: IGROV1 ovarian
OVCAR-8 ovarian = system: OVCAR-8 ovarian
HCT-116 colon = system: HCT-116 colon
NCI/ADR-RES ovarian = system: NCI/ADR-RES ovarian
SNB-19 CNS = system: SNB-19 CNS
SF-539 CNS = system: SF-539 CNS
SR leukemia = system: SR leukemia
CAKI-1 renal = system: CAKI-1 renal
HL-60(TB) leukemia = system: HL-60(TB) leukemia
K-562 leukemia = system: K-562 leukemia
UACC-62 melanoma = system: UACC-62 melanoma
MOLT-4 leukemia = system: MOLT-4 leukemia
M14 melanoma = system: M14 melanoma
HCC-2998 colon = system: HCC-2998 colon
U251 CNS = system: U251 CNS
KM12 colon = system: KM12 colon
MCF7 breast = system: MCF7 breast
SNB-75 CNS = system: SNB-75 CNS
T-47D breast = system: T-47D breast
NCI-H23 lung = system: NCI-H23 lung
HCT-15 colon = system: HCT-15 colon
HS 578T breast = system: HS 578T breast

With `C=C(C)[C@@H]1CC[C@]2(COS(C)(=O)=O)CC[C@]3(C)[C@H](CC[C@@H]4[C@@]5(C)CCCNC(C)(C)[C@@H]5CC[C@]43C)[C@@H]12` as the molecule, how does the GI50 (LOX IMVI melanoma) read?
Its GI50 is 1.09 µM.

What about the TGI (LOX IMVI melanoma) of the same molecule?
The TGI was 2.37 µM.

What about the GI50 (A498 renal) of the same molecule?
Its GI50 is 1.82 µM.

And the TGI (A498 renal)?
The TGI was 6.16 µM.

What about the GI50 (HOP-62 NSCLC) of the same molecule?
The GI50 was 1.67 µM.

And the TGI (HOP-62 NSCLC)?
Its TGI is 3.21 µM.

What about the GI50 (786-0 renal) of the same molecule?
The GI50 was 1.8 µM.

What about the TGI (786-0 renal) of the same molecule?
The TGI was 3.27 µM.

And the GI50 (HT29 colon)?
Its GI50 is 1.83 µM.

And the TGI (HT29 colon)?
Its TGI is 3.55 µM.

And the GI50 (CCRF-CEM leukemia)?
Its GI50 is 1.76 µM.

What about the TGI (CCRF-CEM leukemia) of the same molecule?
Its TGI is 4.42 µM.

And the GI50 (RXF 393 renal)?
Its GI50 is 1.66 µM.

And the TGI (RXF 393 renal)?
Its TGI is 3.08 µM.

What about the GI50 (SN12C renal) of the same molecule?
The GI50 was 2.28 µM.

And the TGI (SN12C renal)?
The TGI was 5.48 µM.

What about the GI50 (PC-3 prostate) of the same molecule?
Its GI50 is 1.59 µM.

And the TGI (PC-3 prostate)?
The TGI was 3.43 µM.

And the GI50 (EKVX NSCLC)?
Its GI50 is 1.58 µM.

What about the TGI (EKVX NSCLC) of the same molecule?
The TGI was 3.14 µM.

And the GI50 (OVCAR-4 ovarian)?
The GI50 was 1.82 µM.

What about the TGI (OVCAR-4 ovarian) of the same molecule?
The TGI was 3.65 µM.

What about the GI50 (RPMI-8226 leukemia) of the same molecule?
The GI50 was 2.05 µM.

And the TGI (RPMI-8226 leukemia)?
The TGI was 4.62 µM.

What about the GI50 (DU-145 prostate) of the same molecule?
The GI50 was 1.81 µM.

And the TGI (DU-145 prostate)?
The TGI was 3.29 µM.

And the GI50 (UO-31 renal)?
Its GI50 is 1.27 µM.

And the TGI (UO-31 renal)?
The TGI was 2.63 µM.

And the GI50 (OVCAR-3 ovarian)?
The GI50 was 1.79 µM.

What about the TGI (OVCAR-3 ovarian) of the same molecule?
Its TGI is 3.22 µM.

What about the GI50 (MDA-MB-435) of the same molecule?
The GI50 was 1.64 µM.

And the TGI (MDA-MB-435)?
The TGI was 3.04 µM.

What about the GI50 (SF-268 CNS) of the same molecule?
The GI50 was 2.61 µM.

And the TGI (SF-268 CNS)?
The TGI was 6.49 µM.

What about the GI50 (COLO 205 colon) of the same molecule?
Its GI50 is 1.73 µM.

And the TGI (COLO 205 colon)?
Its TGI is 3.27 µM.

What about the GI50 (SF-295 CNS) of the same molecule?
The GI50 was 1.82 µM.

And the TGI (SF-295 CNS)?
Its TGI is 3.33 µM.

And the GI50 (SK-OV-3 ovarian)?
The GI50 was 6.44 µM.

And the TGI (SK-OV-3 ovarian)?
Its TGI is 19.6 µM.

And the GI50 (BT-549 breast)?
Its GI50 is 1.99 µM.

And the TGI (BT-549 breast)?
The TGI was 4.08 µM.

And the GI50 (UACC-257 melanoma)?
Its GI50 is 1.99 µM.

And the TGI (UACC-257 melanoma)?
Its TGI is 4.27 µM.

What about the GI50 (NCI-H460 lung) of the same molecule?
Its GI50 is 1.8 µM.

And the TGI (NCI-H460 lung)?
The TGI was 3.49 µM.

What about the GI50 (HOP-92 NSCLC) of the same molecule?
Its GI50 is 1.3 µM.

What about the TGI (HOP-92 NSCLC) of the same molecule?
The TGI was 2.81 µM.

And the GI50 (TK-10 renal)?
Its GI50 is 1.68 µM.

What about the TGI (TK-10 renal) of the same molecule?
The TGI was 3.58 µM.

What about the GI50 (SK-MEL-5 melanoma) of the same molecule?
The GI50 was 1.73 µM.

What about the TGI (SK-MEL-5 melanoma) of the same molecule?
Its TGI is 3.13 µM.

And the GI50 (SW-620 colon)?
The GI50 was 1.68 µM.

What about the TGI (SW-620 colon) of the same molecule?
Its TGI is 3.34 µM.

What about the GI50 (MDA-MB-231 breast) of the same molecule?
Its GI50 is 1.8 µM.

And the TGI (MDA-MB-231 breast)?
The TGI was 3.31 µM.

And the GI50 (OVCAR-5 ovarian)?
The GI50 was 1.68 µM.

What about the TGI (OVCAR-5 ovarian) of the same molecule?
The TGI was 3.1 µM.

What about the GI50 (ACHN renal) of the same molecule?
The GI50 was 1.81 µM.

What about the TGI (ACHN renal) of the same molecule?
The TGI was 3.2 µM.

What about the GI50 (NCI-H226 lung) of the same molecule?
The GI50 was 1.77 µM.

What about the TGI (NCI-H226 lung) of the same molecule?
The TGI was 3.4 µM.

What about the GI50 (MALME-3M melanoma) of the same molecule?
The GI50 was 1.77 µM.

What about the TGI (MALME-3M melanoma) of the same molecule?
Its TGI is 3.73 µM.

What about the GI50 (SK-MEL-2 melanoma) of the same molecule?
Its GI50 is 1.69 µM.

And the TGI (SK-MEL-2 melanoma)?
Its TGI is 3.54 µM.

What about the GI50 (A549 NSCLC) of the same molecule?
The GI50 was 1.82 µM.

What about the TGI (A549 NSCLC) of the same molecule?
The TGI was 3.63 µM.

What about the GI50 (SK-MEL-28 melanoma) of the same molecule?
Its GI50 is 1.7 µM.

What about the TGI (SK-MEL-28 melanoma) of the same molecule?
The TGI was 3.22 µM.

What about the GI50 (IGROV1 ovarian) of the same molecule?
Its GI50 is 1.77 µM.

And the TGI (IGROV1 ovarian)?
The TGI was 3.57 µM.

What about the GI50 (OVCAR-8 ovarian) of the same molecule?
Its GI50 is 1.93 µM.

And the TGI (OVCAR-8 ovarian)?
The TGI was 3.77 µM.

And the GI50 (HCT-116 colon)?
The GI50 was 1.72 µM.

What about the TGI (HCT-116 colon) of the same molecule?
The TGI was 3.24 µM.

What about the GI50 (NCI/ADR-RES ovarian) of the same molecule?
The GI50 was 1.72 µM.

And the TGI (NCI/ADR-RES ovarian)?
Its TGI is 3.27 µM.

And the GI50 (SNB-19 CNS)?
Its GI50 is 1.75 µM.

And the TGI (SNB-19 CNS)?
Its TGI is 3.28 µM.

And the GI50 (SF-539 CNS)?
Its GI50 is 1.66 µM.

What about the TGI (SF-539 CNS) of the same molecule?
Its TGI is 3.08 µM.

What about the GI50 (SR leukemia) of the same molecule?
The GI50 was 1.56 µM.

What about the TGI (SR leukemia) of the same molecule?
The TGI was 3.52 µM.

And the GI50 (CAKI-1 renal)?
The GI50 was 1.67 µM.

And the TGI (CAKI-1 renal)?
The TGI was 3.19 µM.

And the GI50 (HL-60(TB) leukemia)?
Its GI50 is 1.62 µM.

And the TGI (HL-60(TB) leukemia)?
The TGI was 3.39 µM.

And the GI50 (K-562 leukemia)?
The GI50 was 1.16 µM.

And the TGI (K-562 leukemia)?
Its TGI is 3.06 µM.

What about the GI50 (UACC-62 melanoma) of the same molecule?
Its GI50 is 1.72 µM.

And the TGI (UACC-62 melanoma)?
The TGI was 3.14 µM.

What about the GI50 (MOLT-4 leukemia) of the same molecule?
The GI50 was 1.65 µM.

What about the TGI (MOLT-4 leukemia) of the same molecule?
Its TGI is 3.62 µM.

What about the GI50 (M14 melanoma) of the same molecule?
The GI50 was 1.78 µM.

And the TGI (M14 melanoma)?
Its TGI is 3.47 µM.

What about the GI50 (HCC-2998 colon) of the same molecule?
Its GI50 is 1.74 µM.

And the TGI (HCC-2998 colon)?
Its TGI is 3.16 µM.

What about the GI50 (U251 CNS) of the same molecule?
Its GI50 is 1.75 µM.

What about the TGI (U251 CNS) of the same molecule?
The TGI was 3.29 µM.

What about the GI50 (KM12 colon) of the same molecule?
The GI50 was 1.83 µM.

And the TGI (KM12 colon)?
Its TGI is 3.39 µM.

And the GI50 (MCF7 breast)?
Its GI50 is 1.59 µM.

And the TGI (MCF7 breast)?
Its TGI is 3.5 µM.

And the GI50 (SNB-75 CNS)?
The GI50 was 1.37 µM.

What about the TGI (SNB-75 CNS) of the same molecule?
The TGI was 3.08 µM.

What about the GI50 (T-47D breast) of the same molecule?
Its GI50 is 1.78 µM.

What about the TGI (T-47D breast) of the same molecule?
Its TGI is 4 µM.

What about the GI50 (NCI-H23 lung) of the same molecule?
Its GI50 is 1.68 µM.

What about the TGI (NCI-H23 lung) of the same molecule?
Its TGI is 3.34 µM.

What about the GI50 (HCT-15 colon) of the same molecule?
The GI50 was 1.57 µM.

And the TGI (HCT-15 colon)?
The TGI was 3.06 µM.

What about the GI50 (HS 578T breast) of the same molecule?
The GI50 was 1.85 µM.

What about the TGI (HS 578T breast) of the same molecule?
The TGI was 3.92 µM.
